Experimental data taken from patent US20110195900A1, “PEPTIDIC PTH RECEPTOR AGONISTS” (FERRING B.V., priority 2008, published 2011).
pEC50: −log10 of the molar value. Like-named read-outs stand apart in the source and are kept apart here. Non-standard residues stand in square brackets, D forms with d. Residues, ends and D or L forms follow the SMILES beside them. 1Nal = N[C@@H](Cc1cccc2ccccc12)C(=O)O; 2Nal = N[C@@H](Cc1ccc2ccccc2c1)C(=O)O; β3hI = CC[C@H](C)[C@H](N)CC(=O)O; hSer = N[C@@H](CCO)C(=O)O; Nle = CCCC[C@H](N)C(=O)O; β3hA = C[C@H](N)CC(=O)O; Aib = CC(C)(N)C(=O)O; βAla = NCCC(=O)O

Legend:
human PTH-2 receptor = target: T1, human PTH-2 receptor (Homo sapiens, UniProt P49190); assay: Luciferase-based transcriptional reporter gene assay for selectivity; assay type: cell-based
T1 construct: expressed in transfected cells
T1 sequence (P49190 25-550): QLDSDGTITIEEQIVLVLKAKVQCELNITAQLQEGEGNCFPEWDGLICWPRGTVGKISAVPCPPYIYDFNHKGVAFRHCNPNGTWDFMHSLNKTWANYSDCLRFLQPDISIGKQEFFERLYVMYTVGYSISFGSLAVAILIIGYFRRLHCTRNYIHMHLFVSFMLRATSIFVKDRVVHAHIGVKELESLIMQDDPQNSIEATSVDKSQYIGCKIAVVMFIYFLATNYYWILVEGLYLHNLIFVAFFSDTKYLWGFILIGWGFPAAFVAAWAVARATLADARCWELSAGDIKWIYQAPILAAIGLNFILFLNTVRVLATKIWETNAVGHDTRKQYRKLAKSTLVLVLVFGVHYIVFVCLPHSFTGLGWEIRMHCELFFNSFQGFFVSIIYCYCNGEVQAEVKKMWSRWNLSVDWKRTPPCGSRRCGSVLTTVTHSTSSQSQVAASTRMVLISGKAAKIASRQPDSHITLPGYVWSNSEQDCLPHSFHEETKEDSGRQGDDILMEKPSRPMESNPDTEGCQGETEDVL
Protocol: Agonist activity of compounds on the human PTH-1 receptor was determined in a reporter gene assay by transiently transfecting HEK-293 cells with plasmids encoding human PTH-1 receptor under control of the SV40 promoter and a luciferase reporter gene under control of cAMP responsive elements (CRE). See Himmler et al, J. Recept. Res. 13 (1993) 79-94, for further guidance on this assay. Transfected cells were exposed to serial dilutions of compounds for 4-5 hours followed by lysis of cells, determination of luciferase activity, and determination of compound efficacies and EC50 values through non-linear regression.
PTH (1-34) was used as an internal control in each experiment and compounds were tested in at least three independent experiments. To determine selectivity, compounds were tested in luciferase-based transcriptional reporter gene assays expressing the human PTH-2 receptor.

human PTH-1 receptor = target: T2, human PTH-1 receptor (Homo sapiens, UniProt Q03431); assay: Reporter gene assay (CRE-luciferase) for agonist activity in transiently transfected HEK-293 cells; assay type: cell-based; settings: for hPTHR-2/hPTHR-1 / Selectivity hPTHR-2/hPTHR-1: ratio of EC50 values; for hPTHR-2/hPTHR-1: selectivity for hPTH-1 receptor over hPTH-2 receptor; for Selectivity hPTHR-2/hPTHR-1: Table 4 comparison data
T2 construct: expressed in transfected cells; host or cells: HEK-293
T2 sequence (Q03431 27-593): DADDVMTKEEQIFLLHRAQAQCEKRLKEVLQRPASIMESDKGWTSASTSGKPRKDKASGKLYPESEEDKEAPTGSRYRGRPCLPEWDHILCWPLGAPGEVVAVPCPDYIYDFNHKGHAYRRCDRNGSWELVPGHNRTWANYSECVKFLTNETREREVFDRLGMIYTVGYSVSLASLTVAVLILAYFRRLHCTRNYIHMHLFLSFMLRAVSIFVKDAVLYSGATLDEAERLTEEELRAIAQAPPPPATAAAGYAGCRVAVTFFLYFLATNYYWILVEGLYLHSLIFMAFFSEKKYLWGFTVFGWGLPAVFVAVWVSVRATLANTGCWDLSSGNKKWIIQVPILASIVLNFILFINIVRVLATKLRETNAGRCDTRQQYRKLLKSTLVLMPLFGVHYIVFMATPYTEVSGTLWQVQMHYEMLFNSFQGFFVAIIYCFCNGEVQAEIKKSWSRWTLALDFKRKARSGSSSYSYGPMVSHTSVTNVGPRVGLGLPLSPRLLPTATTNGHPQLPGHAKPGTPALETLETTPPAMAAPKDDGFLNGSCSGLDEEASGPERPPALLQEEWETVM
How it was run: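 Selectivity came from luciferase transcriptional reporter assays expressing human PTH-2 receptor. PTH-1 agonism used transiently transfected HEK-293 cells carrying SV40-promoter receptor and cAMP-responsive-element luciferase; 4-5 h compound exposure, lysis, luminescence, non-linear-regression EC50/efficacy; ≥3 independent runs, PTH (1-34) control each.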

[1] = Table 3, luciferase reporter gene assay, read-out: hPTHR-2 EC50

Row | pEC50 (human PTH-2 receptor; [1]) | pEC50 (human PTH-1 receptor; Table 3, HEK-293 cells, CRE-luciferase, 4-5 hours exposure, read-out: hPTHR-1 EC50) | SMILES | pEC50 (human PTH-2 receptor) | pEC50 (human PTH-1 receptor) | hPTHR-2/hPTHR-1 (human PTH-1 receptor; Table 3) | Selectivity hPTHR-2/hPTHR-1 (human PTH-1 receptor)
1 | – | – | CCCC[C@H](NC(=O)CCNC(=O)[C@H](CCCCN)NC(=O)[C@H](CC(C)C)NC(=O)[C@H](Cc1c[nH]cn1)NC(=O)[C@H](CCCCN)NC(=O)CNC(=O)[C@H](CC(C)C)NC(=O)[C@H](CO)NC(=O)[C@H](Cc1c[nH]cn1)NC(=O)[C@H](CCCC)NC(=O)[C@H](CC(C)C)NC(=O)[C@H](CCC(N)=O)NC(=O)[C@@H](NC(=O)[C@H](CCC(=O)O)NC(=O)[C@H](CO)NC(=O)[C@@H](NC(=O)C(C)(C)N)C(C)C)[C@@H](C)CC)C(=O)N[C@@H](CCC(=O)O)C(=O)N[C@@H](CCCNC(=N)N)C(=O)N[C@H](C(=O)N[C@@H](CCC(=O)O)C(=O)N[C@@H](Cc1cccc2ccccc12)C(=O)N[C@@H](CC(C)C)C(=O)N[C@@H](CCCNC(=N)N)C(=O)N[C@@H](CCCCN)C(=O)N[C@@H](CC(C)C)C(=O)N[C@@H](CC(C)C)C(=O)N[C@@H](CCC(N)=O)C(=O)N[C@@H](CCCNC(=N)N)C(=O)N[C@H](C(=O)N[C@@H](Cc1c[nH]cn1)C(=O)N[C@@H](CCC(=O)O)C(=O)N[C@@H](CCC(=O)O)C(N)=O)C(C)C)C(C)C [SEQ ID NO: 6, [Aib^1, Nle^8,18, Ser^10, Lys^16, β-Ala^17,1-Nal^23, Leu^27, Arg^30, Glu^33, Glu^34] hPTH (1-34)-NH2] (H-[Aib]VSEIQL[Nle]HSLGKHLK[βAla][Nle]ERVE[1Nal]LRKLLQRVHEE-NH2; N-terminus assumed) | 8.15 | 10.52 | 267 | –
2 | 7.74 | – | CCCC[C@H](NC(=O)[C@H](CO)NC(=O)[C@H](CC(N)=O)NC(=O)[C@H](CC(C)C)NC(=O)[C@H](Cc1c[nH]cn1)NC(=O)[C@H](CCCCN)NC(=O)CNC(=O)[C@H](CC(C)C)NC(=O)[C@H](CC(N)=O)NC(=O)[C@H](Cc1c[nH]cn1)NC(=O)[C@H](CCCC)NC(=O)[C@H](CC(C)C)NC(=O)[C@H](CCC(N)=O)NC(=O)[C@@H](NC(=O)[C@H](CCC(=O)O)NC(=O)[C@H](CO)NC(=O)[C@@H](NC(=O)[C@@H](N)CO)C(C)C)[C@@H](C)CC)C(=O)NCCC(=O)N[C@@H](CCCNC(=N)N)C(=O)N[C@H](C(=O)N[C@@H](CCC(=O)O)C(=O)N[C@@H](Cc1cccc2ccccc12)C(=O)N[C@@H](CC(C)C)C(=O)N[C@@H](CCCNC(=N)N)C(=O)N[C@@H](CCCCN)C(=O)N[C@@H](CC(C)C)C(=O)N[C@@H](CC(C)C)C(=O)N[C@@H](CCC(N)=O)C(=O)N[C@@H](CC(=O)O)C(=O)N[C@H](C(=O)N[C@@H](Cc1c[nH]cn1)C(=O)N[C@@H](CC(N)=O)C(=O)N[C@@H](Cc1ccccc1)C(N)=O)C(C)C)C(C)C [SEQ ID NO: 11, [Nle^8,18, β-Ala^19,1-Nal^23, Leu^27] hPTH-(1-34)-NH2] (H-SVSEIQL[Nle]HNLGKHLNS[Nle][βAla]RVE[1Nal]LRKLLQDVHNF-NH2; N-terminus assumed) | – | – | 69 | –
3 | 7.34 | 9.66 | CCCC[C@H](NC(=O)CCNC(=O)[C@H](CC(N)=O)NC(=O)[C@H](CC(C)C)NC(=O)[C@H](Cc1c[nH]cn1)NC(=O)[C@H](CCCCN)NC(=O)CNC(=O)[C@H](CC(C)C)NC(=O)[C@H](CC(N)=O)NC(=O)[C@H](Cc1c[nH]cn1)NC(=O)[C@H](CCCC)NC(=O)[C@H](CC(C)C)NC(=O)[C@H](CCC(N)=O)NC(=O)[C@@H](NC(=O)[C@H](CCC(=O)O)NC(=O)[C@H](CO)NC(=O)[C@@H](NC(=O)C(C)(C)N)C(C)C)[C@@H](C)CC)C(=O)N[C@@H](CCC(=O)O)C(=O)N[C@@H](CCCNC(=N)N)C(=O)N[C@H](C(=O)N[C@@H](CCC(=O)O)C(=O)N[C@@H](Cc1ccc2ccccc2c1)C(=O)N[C@@H](CC(C)C)C(=O)N[C@@H](CCCNC(=N)N)C(=O)N[C@@H](CCCCN)C(=O)N[C@@H](CCCCN)C(=O)N[C@@H](CC(C)C)C(=O)N[C@@H](CCC(N)=O)C(=O)N[C@@H](CC(=O)O)C(=O)N[C@H](C(=O)N[C@@H](Cc1c[nH]cn1)C(=O)N[C@@H](CC(N)=O)C(=O)N[C@@H](Cc1ccccc1)C(N)=O)C(C)C)C(C)C [SEQ ID NO: 13, [Aib^1, Nle^8,18, β-Ala^17,2-Nal^23] hPTH (1-34)-NH2] (H-[Aib]VSEIQL[Nle]HNLGKHLN[βAla][Nle]ERVE[2Nal]LRKKLQDVHNF-NH2; N-terminus assumed) | – | – | 213 | –
4 | – | – | CC[C@H](C)[C@H](NC(=O)[C@H](CCC(=O)O)NC(=O)[C@H](CO)NC(=O)[C@@H](NC(=O)[C@@H](N)CO)C(C)C)C(=O)N[C@@H](CCC(N)=O)C(=O)N[C@@H](CC(C)C)C(=O)N[C@@H](CCOC)C(=O)N[C@@H](Cc1c[nH]cn1)C(=O)N[C@@H](CC(N)=O)C(=O)N[C@@H](CC(C)C)C(=O)NCC(=O)N[C@@H](CCCCN)C(=O)N[C@@H](Cc1c[nH]cn1)C(=O)N[C@@H](CC(C)C)C(=O)N[C@@H](CC(N)=O)C(=O)NCCC(=O)N[C@@H](CCOC)C(=O)N[C@@H](CCC(=O)O)C(=O)N[C@@H](CCCNC(=N)N)C(=O)N[C@H](C(=O)N[C@@H](CCC(=O)O)C(=O)N[C@@H](Cc1cccc2ccccc12)C(=O)N[C@@H](CC(C)C)C(=O)N[C@@H](CCCNC(=N)N)C(=O)N[C@@H](CCCCN)C(=O)N[C@@H](CC(C)C)C(=O)N[C@@H](CC(C)C)C(=O)N[C@@H](CCC(N)=O)C(=O)N[C@@H](CC(=O)O)C(=O)N[C@H](C(=O)N[C@@H](Cc1c[nH]cn1)C(=O)N[C@@H](CC(N)=O)C(=O)N[C@@H](Cc1ccccc1)C(N)=O)C(C)C)C(C)C [SEQ ID NO: 17, [hSer(OMe)^8,18, β-Ala^17,1-Nal^23, Leu^27] hPTH(1-34)-NH2] (H-SVSEIQL[hSer](Me)HNLGKHLN[βAla][hSer](Me)ERVE[1Nal]LRKLLQDVHNF-NH2) | < 6.57 | – | >300 | –
5 | – | – | CCCC[C@H](NC(=O)[C@H](CC(C)C)NC(=O)[C@H](CCC(N)=O)NC(=O)[C@@H](NC(=O)[C@H](CCC(=O)O)NC(=O)[C@H](CO)NC(=O)[C@@H](NC(=O)[C@@H](N)CO)C(C)C)[C@@H](C)CC)C(=O)N[C@@H](Cc1c[nH]cn1)C(=O)N[C@@H](CC(N)=O)C(=O)N[C@@H](CC(C)C)C(=O)NCC(=O)N[C@@H](CCCCN)C(=O)N[C@@H](Cc1c[nH]cn1)C(=O)N[C@@H](CC(C)C)C(=O)N[C@@H](CC(N)=O)C(=O)N[C@@H](CO)C(=O)N[C@@H](C)CC(=O)N[C@@H](CCC(=O)O)C(=O)N[C@@H](CCCNC(=N)N)C(=O)N[C@H](C(=O)N[C@@H](CCC(=O)O)C(=O)N[C@@H](Cc1cccc2ccccc12)C(=O)N[C@@H](CC(C)C)C(=O)N[C@@H](CCCNC(=N)N)C(=O)N[C@@H](CCCCN)C(=O)N[C@@H](CC(C)C)C(=O)N[C@@H](CC(C)C)C(=O)N[C@@H](CCC(N)=O)C(=O)N[C@@H](CC(=O)O)C(=O)N[C@H](C(=O)N[C@@H](Cc1c[nH]cn1)C(=O)N[C@@H](CC(N)=O)C(=O)N[C@@H](Cc1ccccc1)C(N)=O)C(C)C)C(C)C [SEQ ID NO: 18, [Nle^8, β-hAla^18,1-Nal^23, Leu^27] hPTH (1-34)-NH2] (H-SVSEIQL[Nle]HNLGKHLNS[β3hA]ERVE[1Nal]LRKLLQDVHNF-NH2) | 7.21 | 9.66 | 281 | 281
6 | – | – | CCCC[C@H](NC(=O)[C@H](CC(C)C)NC(=O)[C@H](CCC(N)=O)NC(=O)[C@@H](NC(=O)[C@H](CCC(=O)O)NC(=O)[C@H](CO)NC(=O)[C@@H](NC(=O)[C@@H](N)CO)C(C)C)[C@@H](C)CC)C(=O)N[C@@H](Cc1c[nH]cn1)C(=O)N[C@@H](CC(N)=O)C(=O)N[C@@H](CC(C)C)C(=O)NCC(=O)N[C@@H](CCCCN)C(=O)N[C@@H](Cc1c[nH]cn1)C(=O)N[C@@H](CC(C)C)C(=O)N[C@@H](CC(N)=O)C(=O)N[C@@H](CO)C(=O)N[C@H](CC(=O)N[C@@H](CCC(=O)O)C(=O)N[C@@H](CCCNC(=N)N)C(=O)N[C@H](C(=O)N[C@@H](CCC(=O)O)C(=O)N[C@@H](Cc1cccc2ccccc12)C(=O)N[C@@H](CC(C)C)C(=O)N[C@@H](CCCNC(=N)N)C(=O)N[C@@H](CCCCN)C(=O)N[C@@H](CC(C)C)C(=O)N[C@@H](CC(C)C)C(=O)N[C@@H](CCC(N)=O)C(=O)N[C@@H](CC(=O)O)C(=O)N[C@H](C(=O)N[C@@H](Cc1c[nH]cn1)C(=O)N[C@@H](CC(N)=O)C(=O)N[C@@H](Cc1ccccc1)C(N)=O)C(C)C)C(C)C)[C@@H](C)CC [SEQ ID NO: 19, [Nle^8, β-hIle^18,1-Nal^23, Leu^27] hPTH (1-34)-NH2] (H-SVSEIQL[Nle]HNLGKHLNS[β3hI]ERVE[1Nal]LRKLLQDVHNF-NH2) | 7.49 | 9.85 | 224 | 224
